According to ChEMBL document CHEMBL1201862, “PubChem BioAssay data set” (2004):
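Step 1: Grow cells in 96-well plates. Step 2: Expose to compound for 48 hours at 5 concentrations. Step 3: Interpolate endpoints linearly; if unreached, use highest concentration. Here, GI50 denotes the concentration required for 50% inhibition of growth.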 Active and inactive are the calls of the source. No stated cut-off is given here; in the data, active = GI50 up to about 1.1 µM and inactive = higher.

Tests used:
Test in all cases: NCI tumour cell line growth inhibition, 48 h
OVCAR-8 = system: OVCAR-8
CCRF-CEM = system: CCRF-CEM
SK-MEL-2 = system: SK-MEL-2
Malme-3M = system: Malme-3M
HCC 2998 = system: HCC 2998
EKVX = system: EKVX
ACHN = system: ACHN
OVCAR-3 = system: OVCAR-3
BT-549 = system: BT-549
HL-60 = system: HL-60
RXF 393 = system: RXF 393
SK-OV-3 = system: SK-OV-3
SK-MEL-5 = system: SK-MEL-5
M14 = system: M14
OVCAR-4 = system: OVCAR-4
DU-145 = system: DU-145
KM12 = system: KM12
MDA-MB-231 = system: MDA-MB-231
LOX IMVI = system: LOX IMVI
UACC-257 = system: UACC-257

| SMILES | GI50 (OVCAR-8) | GI50 (CCRF-CEM) | GI50 (SK-MEL-2) | GI50 (Malme-3M) | GI50 (HCC 2998) | GI50 (EKVX) | GI50 (ACHN) | GI50 (OVCAR-3) | GI50 (BT-549) | GI50 (HL-60) | GI50 (RXF 393) | GI50 (SK-OV-3) | GI50 (SK-MEL-5) | GI50 (M14) | GI50 (OVCAR-4) | GI50 (DU-145) | GI50 (KM12) | GI50 (MDA-MB-231) | GI50 (LOX IMVI) | GI50 (UACC-257) |
| --- | --- | --- | --- | --- | --- | --- | --- | --- | --- | --- | --- | --- | --- | --- | --- | --- | --- | --- | --- | --- |
| CCOC(=O)C12CCC(c3c(C)cccc3C)(O1)C(C(=O)OC)=C2C(=O)OC (stereo not given) | 5.4 µM (inactive) | 3.06 µM (inactive) | > 8.99 µM (inactive) | 1.05 µM (active) | 6.7 µM (inactive) | > 7.18 µM (inactive) | > 8.49 µM (inactive) | 0.889 µM (active) | 4 µM (inactive) | 1.82 µM (inactive) | 4.71 µM (inactive) | 5.09 µM (inactive) | 0.668 µM (active) | 2.69 µM (inactive) | > 9.02 µM (inactive) | 4.24 µM (inactive) | 4.28 µM (inactive) | 5.07 µM (inactive) | 2.39 µM (inactive) | 2.58 µM (inactive) |
| COc1nc(OC)nc(-c2cccc(F)c2)n1 | 23.4 µM (inactive) | 9.2 µM (inactive) | 18.8 µM (inactive) | 15.2 µM (inactive) | 13.4 µM (inactive) | 4.6 µM (inactive) | 16.4 µM (inactive) | 13.8 µM (inactive) | 14 µM (inactive) | 24.3 µM (inactive) | 15.9 µM (inactive) | 15.9 µM (inactive) | 15.6 µM (inactive) | 18 µM (inactive) | 15.7 µM (inactive) | 13.2 µM (inactive) | 15.7 µM (inactive) | 14.5 µM (inactive) | 17 µM (inactive) | 14.3 µM (inactive) |
| Cc1ccc(Nc2cc(=O)[nH]c(=S)[nH]2)cc1 | > 100 µM (inactive) | > 100 µM (inactive) | > 100 µM (inactive) | > 100 µM (inactive) | > 100 µM (inactive) | > 100 µM (inactive) | > 100 µM (inactive) | > 100 µM (inactive) | > 100 µM (inactive) | > 100 µM (inactive) | > 100 µM (inactive) | > 100 µM (inactive) | > 100 µM (inactive) | > 100 µM (inactive) | > 100 µM (inactive) | > 100 µM (inactive) | > 100 µM (inactive) | > 100 µM (inactive) | > 100 µM (inactive) | > 100 µM (inactive) |
| Clc1ccc(Cn2cc(/C=N/n3cnnc3)c3ccccc32)cc1 | 40.4 µM (inactive) | 73.6 µM (inactive) | 26.7 µM (inactive) | 89.3 µM (inactive) | 14.4 µM (inactive) | 20.6 µM (inactive) | 51.1 µM (inactive) | 86.5 µM (inactive) | 29.3 µM (inactive) | 40.6 µM (inactive) | 16.4 µM (inactive) | 42.6 µM (inactive) | 19.5 µM (inactive) | 57 µM (inactive) | 33.5 µM (inactive) | > 100 µM (inactive) | 70.3 µM (inactive) | 20.4 µM (inactive) | 54.6 µM (inactive) | 46.5 µM (inactive) |
| Oc1ccc(Cl)cc1C1=NC(NCN2CCN(CNC3=NC(c4ccccc4)CC(c4cc(Cl)ccc4O)=N3)CC2)=NC(c2ccccc2)C1 (stereo not given) | 31.8 µM (inactive) | 21.5 µM (inactive) | 43 µM (inactive) | 93.5 µM (inactive) | 52.6 µM (inactive) | 48.3 µM (inactive) | 24.8 µM (inactive) | 28.8 µM (inactive) | 52.2 µM (inactive) | 28.4 µM (inactive) | 22 µM (inactive) | 66.7 µM (inactive) | 93.5 µM (inactive) | 58.6 µM (inactive) | 28.9 µM (inactive) | 41.8 µM (inactive) | 37.1 µM (inactive) | > 100 µM (inactive) | 40.6 µM (inactive) | > 100 µM (inactive) |
| CCCCc1ccc(Nc2nc(O)c3ncn(COCCO)c3n2)cc1 | > 100 µM (inactive) | > 100 µM (inactive) | > 100 µM (inactive) | > 100 µM (inactive) | > 100 µM (inactive) | > 100 µM (inactive) | > 100 µM (inactive) | > 100 µM (inactive) | > 100 µM (inactive) | > 100 µM (inactive) | > 100 µM (inactive) | > 100 µM (inactive) | > 100 µM (inactive) | > 100 µM (inactive) | > 100 µM (inactive) | > 100 µM (inactive) | > 100 µM (inactive) | > 100 µM (inactive) | > 100 µM (inactive) | > 100 µM (inactive) |
| CCCCCCCCCCCCCC(=O)N(CCCCCCCCC)CC(O)C(O)C(OC1OC(CO)C(O)C(O)C1O)C(O)CO (stereo not given) | 20.8 µM (inactive) | 26.2 µM (inactive) | 24.6 µM (inactive) | 18.3 µM (inactive) | 18.5 µM (inactive) | 18 µM (inactive) | 15.8 µM (inactive) | 26.6 µM (inactive) | 22.9 µM (inactive) | 23.3 µM (inactive) | 24.3 µM (inactive) | 14.7 µM (inactive) | 19.5 µM (inactive) | 20.1 µM (inactive) | 24 µM (inactive) | 16.5 µM (inactive) | 17.7 µM (inactive) | 20.7 µM (inactive) | 19.5 µM (inactive) | 17.1 µM (inactive) |
